# Reference: ChEMBL document CHEMBL1201862, “PubChem BioAssay data set” (2004)
#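 Protocol summary: plate cells (96-well), add compound at 5 concentrations, incubate 48 h, interpolate endpoints linearly. The concentration for 50% growth inhibition is given as GI50.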 The source made the active and inactive calls. Cut-off read from the data, not from the text of the source: active = GI50 up to about 1.1 µM and inactive = higher.
# Key:
# Assay in all cases: DTP human tumour cell line panel, 48 h
# SNB-75 = system: SNB-75
# PC-3 = system: PC-3
# RPMI-8226 = system: RPMI-8226
# K562 = system: K562
# HCC 2998 = system: HCC 2998
# SN12C = system: SN12C
# DU-145 = system: DU-145
# RXF 393 = system: RXF 393
# SW-620 = system: SW-620
# IGROV-1 = system: IGROV-1
# HOP-62 = system: HOP-62
# UACC-257 = system: UACC-257
# OVCAR-8 = system: OVCAR-8
# HT-29 = system: HT-29
# SF-295 = system: SF-295
# EKVX = system: EKVX
# Malme-3M = system: Malme-3M
# NCI-H23 = system: NCI-H23
# TK-10 = system: TK-10
# HL-60 = system: HL-60
# MDA-MB-231 = system: MDA-MB-231
# HCT-15 = system: HCT-15
# MOLT-4 = system: MOLT-4
# CAKI-1 = system: CAKI-1
# COLO 205 = system: COLO 205
# KM12 = system: KM12
# SK-OV-3 = system: SK-OV-3
# CCRF-CEM = system: CCRF-CEM
# 786-0 = system: 786-0
# SR = system: SR
# MDA-N = system: MDA-N
# SK-MEL-5 = system: SK-MEL-5
# LOX IMVI = system: LOX IMVI
# MCF7 = system: MCF7
# M14 = system: M14
# SK-MEL-28 = system: SK-MEL-28
# UACC-62 = system: UACC-62
# A549 = system: A549
# T47D = system: T47D
# U-251 = system: U-251
# NCI/ADR-RES = system: NCI/ADR-RES
# ACHN = system: ACHN
# HCT-116 = system: HCT-116
# NCI-H226 = system: NCI-H226
# OVCAR-5 = system: OVCAR-5
# UO-31 = system: UO-31
# NCI-H522 = system: NCI-H522
# A498 = system: A498
# OVCAR-3 = system: OVCAR-3
# SNB-19 = system: SNB-19
# SF-539 = system: SF-539
# HOP-92 = system: HOP-92
# MDA-MB-435 = system: MDA-MB-435
# SK-MEL-2 = system: SK-MEL-2
# OVCAR-4 = system: OVCAR-4
# SF-268 = system: SF-268
smiles,measurement,setting,value
CC(=O)OCC12CCC3C4(C)CCCC(C)(C)C4CCC3(C)C1CC(C1=CC(=O)OC1O)O2 (stereo not drawn),GI50,SNB-75,1.76 µM (inactive)
same,GI50,PC-3,1.31 µM (inactive)
same,GI50,RPMI-8226,0.428 µM (active)
same,GI50,K562,0.776 µM (active)
same,GI50,HCC 2998,1.84 µM (inactive)
same,GI50,SN12C,1.34 µM (inactive)
same,GI50,DU-145,2.07 µM (inactive)
same,GI50,RXF 393,2.06 µM (inactive)
same,GI50,SW-620,1.29 µM (inactive)
same,GI50,IGROV-1,1.54 µM (inactive)
same,GI50,HOP-62,2.41 µM (inactive)
same,GI50,UACC-257,1.91 µM (inactive)
same,GI50,OVCAR-8,1.38 µM (inactive)
same,GI50,HT-29,1.3 µM (inactive)
same,GI50,SF-295,2.34 µM (inactive)
same,GI50,EKVX,2.43 µM (inactive)
same,GI50,Malme-3M,1.05 µM (active)
same,GI50,NCI-H23,1.69 µM (inactive)
same,GI50,TK-10,1.9 µM (inactive)
same,GI50,HL-60,0.513 µM (active)
same,GI50,MDA-MB-231,1.75 µM (inactive)
same,GI50,HCT-15,0.92 µM
same,GI50,MOLT-4,0.248 µM (active)
same,GI50,CAKI-1,1.49 µM (inactive)
same,GI50,COLO 205,1.83 µM (inactive)
same,GI50,KM12,1.82 µM (inactive)
same,GI50,SK-OV-3,2.47 µM (inactive)
same,GI50,CCRF-CEM,0.303 µM (active)
same,GI50,786-0,1.09 µM (active)
same,GI50,SR,0.244 µM (active)
same,GI50,MDA-N,1.53 µM (inactive)
same,GI50,SK-MEL-5,1.86 µM (inactive)
same,GI50,LOX IMVI,1.18 µM (inactive)
same,GI50,MCF7,1.24 µM (inactive)
same,GI50,M14,1.42 µM (inactive)
same,GI50,SK-MEL-28,1.53 µM (inactive)
same,GI50,UACC-62,1.8 µM (inactive)
same,GI50,A549,2.92 µM (inactive)
same,GI50,T47D,1.88 µM (inactive)
Cc1[nH]c(=O)nc(NCCNCCO)c1C(=O)Nc1c2ccccc2nc2ccccc12,GI50,U-251,> 100 µM (inactive)
same,GI50,SNB-75,> 100 µM (inactive)
same,GI50,PC-3,> 100 µM (inactive)
same,GI50,NCI/ADR-RES,> 100 µM (inactive)
same,GI50,RPMI-8226,> 100 µM (inactive)
same,GI50,K562,> 100 µM (inactive)
same,GI50,HCC 2998,> 100 µM (inactive)
same,GI50,SN12C,> 100 µM (inactive)
same,GI50,DU-145,> 100 µM (inactive)
same,GI50,RXF 393,> 100 µM (inactive)
same,GI50,ACHN,> 100 µM (inactive)
same,GI50,HCT-116,> 100 µM (inactive)
same,GI50,NCI-H226,> 100 µM (inactive)
same,GI50,SW-620,> 100 µM (inactive)
same,GI50,OVCAR-5,> 100 µM (inactive)
same,GI50,IGROV-1,> 100 µM (inactive)
same,GI50,UO-31,> 100 µM (inactive)
same,GI50,HOP-62,> 100 µM (inactive)
same,GI50,UACC-257,> 100 µM (inactive)
same,GI50,OVCAR-8,> 100 µM (inactive)
same,GI50,HT-29,> 100 µM (inactive)
same,GI50,NCI-H522,> 100 µM (inactive)
same,GI50,SF-295,> 100 µM (inactive)
same,GI50,EKVX,> 100 µM (inactive)
same,GI50,A498,> 100 µM (inactive)
same,GI50,Malme-3M,> 100 µM (inactive)
same,GI50,NCI-H23,> 100 µM (inactive)
same,GI50,TK-10,> 100 µM (inactive)
same,GI50,OVCAR-3,> 100 µM (inactive)
same,GI50,HL-60,> 100 µM (inactive)
same,GI50,MDA-MB-231,> 100 µM (inactive)
same,GI50,SNB-19,> 100 µM (inactive)
same,GI50,SF-539,> 100 µM (inactive)
same,GI50,HOP-92,> 100 µM (inactive)
same,GI50,HCT-15,> 100 µM
same,GI50,MOLT-4,> 100 µM (inactive)
same,GI50,CAKI-1,> 100 µM (inactive)
same,GI50,MDA-MB-435,> 100 µM (inactive)
same,GI50,COLO 205,> 100 µM (inactive)
same,GI50,SK-MEL-2,> 100 µM (inactive)
same,GI50,KM12,> 100 µM (inactive)
same,GI50,SK-OV-3,> 100 µM (inactive)
same,GI50,CCRF-CEM,> 100 µM (inactive)
same,GI50,786-0,> 100 µM (inactive)
same,GI50,MDA-N,> 100 µM (inactive)
same,GI50,SK-MEL-5,> 100 µM (inactive)
same,GI50,LOX IMVI,> 100 µM (inactive)
same,GI50,MCF7,> 100 µM (inactive)
same,GI50,M14,> 100 µM (inactive)
same,GI50,SK-MEL-28,> 100 µM (inactive)
same,GI50,UACC-62,> 100 µM (inactive)
same,GI50,OVCAR-4,> 100 µM (inactive)
same,GI50,A549,> 100 µM (inactive)
same,GI50,T47D,> 100 µM (inactive)
C[N+]12CCN(c3ccccc31)c1ccccc12.[O-][Cl+3]([O-])([O-])[O-],GI50,U-251,6.01 µM (inactive)
same,GI50,SNB-75,6.28 µM (inactive)
same,GI50,PC-3,> 10 µM (inactive)
same,GI50,NCI/ADR-RES,> 10 µM (inactive)
same,GI50,SF-268,4.79 µM (inactive)
same,GI50,SN12C,7.28 µM (inactive)
same,GI50,DU-145,> 10 µM (inactive)
same,GI50,RXF 393,> 10 µM (inactive)
same,GI50,ACHN,> 10 µM (inactive)
same,GI50,SW-620,> 10 µM (inactive)
same,GI50,OVCAR-5,> 10 µM (inactive)
same,GI50,IGROV-1,> 10 µM (inactive)
same,GI50,UO-31,> 10 µM (inactive)
same,GI50,OVCAR-8,7.16 µM (inactive)
same,GI50,HT-29,> 10 µM (inactive)
same,GI50,SF-295,7.46 µM (inactive)
same,GI50,EKVX,6.15 µM (inactive)
same,GI50,A498,> 10 µM (inactive)
same,GI50,NCI-H23,4.95 µM (inactive)
same,GI50,TK-10,> 10 µM (inactive)
same,GI50,OVCAR-3,3.44 µM (inactive)
same,GI50,MDA-MB-231,> 10 µM (inactive)
same,GI50,SNB-19,> 10 µM (inactive)
same,GI50,HOP-92,> 10 µM (inactive)
same,GI50,HCT-15,> 10 µM
same,GI50,CAKI-1,> 10 µM (inactive)
same,GI50,MDA-MB-435,> 10 µM (inactive)
same,GI50,COLO 205,7.73 µM (inactive)
same,GI50,KM12,> 10 µM (inactive)
same,GI50,MDA-N,2.79 µM (inactive)
same,GI50,SK-MEL-5,2.29 µM (inactive)
same,GI50,M14,> 10 µM (inactive)
same,GI50,SK-MEL-28,> 10 µM (inactive)
same,GI50,OVCAR-4,> 10 µM (inactive)
same,GI50,A549,4.91 µM (inactive)
